{"source": "patent US20100041089A1", "about": "“IMPROVED METHOD FOR DETECTING CHEMICAL […]” (priority 2006, published 2010)", "tested_on": "yeast genes (expressed mRNA)", "test": "DNA chip measurement of expressed mRNA of yeast genes after culture with a toxic chemical substance", "assay_type": "cell-based, Saccharomyces cerevisiae S288C", "conditions": "for level of expressed mRNA in the presence of chemical substance / level in the absence of chemical substance: cultured two hours with the chemical substance; for The level of expressed mRNA in the presence of chemical substance/The level of expressed mRNA in the absence of chemical substance: cultured two hours with substance", "procedure": "Yeast (Saccharomyces cerevisiae S288C (a SUC2mal mel gap2 CUP1)) were cultured at 25° C. on YPD medium (yeast extract 1%, polypeptone 2%, glucose 2%). One of toxic chemical substances was added to the cell at logarithmic growth phase, and the cell was further cultured for two hours. Cell was cultured without any chemical substance in the same condition, and was used as a control. Concentrations of the chemical substances were defined to inhibit the growth of the yeast but not lead to death.\nAfter the completion of cultivation, the culture was centrifuged to collect the cells. To the cells, sodium acetate buffer (50 mM sodium acetate, 10 mM EDTA, 1% SDS) was added, and the mixture was shaken at 65° C. for five minutes, followed by returning to room temperature, and obtaining the supernatant, which procedure was repeated two times. To the supernatant, ½ amount of a solution of phenol/chloroform (1:1) was added, and the mixture was centrifuged to give a supernatant, an equal amount of chloroform was added, and the mixture was centrifuged to give a supernatant. To the supernatant, an equal amount of isopropanol containing 0.3 M sodium acetate was added, and the mixture was allowed to stand at room temperature for 30 minutes, after which the mixture was centrifuged to give sediment of the whole RNAs. Seventy % ethanol was added to the sediment, and the mixture was again centrifuged to give sediment, which was then dried and dissolved in water. mRNA was isolated from the whole RNAs as followings. In view of the fact that a poly A chain is attached to the 3′ terminus of mRNA, a polynucleotide having a poly T structure which was immobilized on the surface of latex beads was used to trap the mRNA, and then the mRNA was washed and eluted with spine column (Oligotex-dT30<Super>mRNA Purification Kit, Takara). Reverse transcription of the mRNA was conducted with a reverse transcriptase (Super Script II Reverse Transcriptase; catalogue No. 18064-014, GibcoBRL) using fluorescence-labeled nucleotides to give cDNAs that were introduced with Cy3-dUTP or Cy5-dUTP during the reverse transcription.\nThe labeled cDNAs were dissolved in TE buffer (10 mM Tris-HCl/1 mM EDTA, pH 8.0), and the solution was dropped on the DNA chip containing the whole genes of yeast (DNA Chip Research Inc. Japan) so that the cDNAs were hybridized on the DNA chip at 65° C. for over 12 hours. The fluoresces intensity of the DNA chip was read with a scanner, and the ratio relative to the fluorescence intensity resulting from the absence of chemical substance was estimated as the following, which is shown in Tables 1 to 9.\nIn the Tables, “Intensity” indicated in the rightmost column is a value of the level of expressed mRNA of each gene in control cells as divided by the average level of the expressions of the whole genes. A gene of which mRNA level is lower in control, and is higher in cases of addition of chemical substance, is especially useful in the detection of toxic substances.\nHere, when a ratio of an amount of mRNA expressed in the presence of the chemical substance to an amount of mRNA expressed in the absence of the chemical substance is two or more, then it is considered significant."}
{"smiles": "[Cl][Cd][Cl]", "note": "[(2), CdCl2]", "values": [{"measurement": "level of expressed mRNA in the presence of chemical substance / level in the absence of chemical substance", "setting": "yeast gene YNL058C", "value": 1.0}, {"measurement": "level of expressed mRNA in the presence of chemical substance / level in the absence of chemical substance", "setting": "yeast gene YNL063W", "value": 1.9}, {"measurement": "The level of expressed mRNA in the presence of chemical substance/The level of expressed mRNA in the absence of chemical substance", "setting": "yeast gene YNL074C", "value": 1.3}, {"measurement": "The level of expressed mRNA in the presence of chemical substance/The level of expressed mRNA in the absence of chemical substance", "setting": "yeast gene YNL092W", "value": 1.4}, {"measurement": "The level of expressed mRNA in the presence of chemical substance/The level of expressed mRNA in the absence of chemical substance", "setting": "yeast gene YNL115C", "value": 1.8}, {"measurement": "The level of expressed mRNA in the presence of chemical substance/The level of expressed mRNA in the absence of chemical substance", "setting": "yeast gene YNL156C", "value": 1.2}, {"measurement": "level of expressed mRNA in the presence of chemical substance / level in the absence of chemical substance", "setting": "yeast gene YNL176C", "value": 1.3}, {"measurement": "level of expressed mRNA in the presence of chemical substance / level in the absence of chemical substance", "setting": "yeast gene YNL194C", "value": 0.7}, {"measurement": "level of expressed mRNA in the presence of chemical substance / level in the absence of chemical substance", "setting": "yeast gene YNL200C", "value": 3.0}, {"measurement": "The level of expressed mRNA in the presence of chemical substance/The level of expressed mRNA in the absence of chemical substance", "setting": "yeast gene YNL234W", "value": 1.1}, {"measurement": "level of expressed mRNA in the presence of chemical substance / level in the absence of chemical substance", "setting": "yeast gene YNL253W", "value": 1.3}, {"measurement": "level of expressed mRNA in the presence of chemical substance / level in the absence of chemical substance", "setting": "yeast gene YNL276C", "value": 13.1}, {"measurement": "The level of expressed mRNA in the presence of chemical substance/The level of expressed mRNA in the absence of chemical substance", "setting": "yeast gene YNL281W", "value": 1.3}, {"measurement": "The level of expressed mRNA in the presence of chemical substance/The level of expressed mRNA in the absence of chemical substance", "setting": "yeast gene YNL305C", "value": 2.2}, {"measurement": "level of expressed mRNA in the presence of chemical substance / level in the absence of chemical substance", "setting": "yeast gene YNR051C", "value": 0.5}, {"measurement": "The level of expressed mRNA in the presence of chemical substance/The level of expressed mRNA in the absence of chemical substance", "setting": "yeast gene YNR068C", "value": 1.5}, {"measurement": "level of expressed mRNA in the presence of chemical substance / level in the absence of chemical substance", "setting": "yeast gene YOL026C", "value": 2.7}, {"measurement": "The level of expressed mRNA in the presence of chemical substance/The level of expressed mRNA in the absence of chemical substance", "setting": "yeast gene YOL032W", "value": 0.8}, {"measurement": "The level of expressed mRNA in the presence of chemical substance/The level of expressed mRNA in the absence of chemical substance", "setting": "yeast gene YOL036W", "value": 0.9}, {"measurement": "The level of expressed mRNA in the presence of chemical substance/The level of expressed mRNA in the absence of chemical substance", "setting": "yeast gene YOL047C", "value": 1.1}, {"measurement": "The level of expressed mRNA in the presence of chemical substance/The level of expressed mRNA in the absence of chemical substance", "setting": "yeast gene YOL071W", "value": 2.0}, {"measurement": "The level of expressed mRNA in the presence of chemical substance/The level of expressed mRNA in the absence of chemical substance", "setting": "yeast gene YOL082W", "value": 1.6}, {"measurement": "The level of expressed mRNA in the presence of chemical substance/The level of expressed mRNA in the absence of chemical substance", "setting": "yeast gene YOL083W", "value": 2.3}, {"measurement": "The level of expressed mRNA in the presence of chemical substance/The level of expressed mRNA in the absence of chemical substance", "setting": "yeast gene YOL117W", "value": 1.1}, {"measurement": "The level of expressed mRNA in the presence of chemical substance/The level of expressed mRNA in the absence of chemical substance", "setting": "yeast gene YOL131W", "value": 1.5}, {"measurement": "The level of expressed mRNA in the presence of chemical substance/The level of expressed mRNA in the absence of chemical substance", "setting": "yeast gene YOL150C", "value": 3.7}, {"measurement": "The level of expressed mRNA in the presence of chemical substance/The level of expressed mRNA in the absence of chemical substance", "setting": "yeast gene YOL162W", "value": 6.9}, {"measurement": "The level of expressed mRNA in the presence of chemical substance/The level of expressed mRNA in the absence of chemical substance", "setting": "yeast gene YOR019W", "value": 1.2}, {"measurement": "level of expressed mRNA in the presence of chemical substance / level in the absence of chemical substance", "setting": "yeast gene YOR022C", "value": 1.1}, {"measurement": "level of expressed mRNA in the presence of chemical substance / level in the absence of chemical substance", "setting": "yeast gene YOR087W", "value": 1.0}, {"measurement": "level of expressed mRNA in the presence of chemical substance / level in the absence of chemical substance", "setting": "yeast gene YOR138C", "value": 1.5}, {"measurement": "The level of expressed mRNA in the presence of chemical substance/The level of expressed mRNA in the absence of chemical substance", "setting": "yeast gene YOR197W", "value": 1.0}, {"measurement": "level of expressed mRNA in the presence of chemical substance / level in the absence of chemical substance", "setting": "yeast gene YOR253W", "value": 2.8}, {"measurement": "level of expressed mRNA in the presence of chemical substance / level in the absence of chemical substance", "setting": "yeast gene YOR267C", "value": 0.7}, {"measurement": "level of expressed mRNA in the presence of chemical substance / level in the absence of chemical substance", "setting": "yeast gene YOR325W", "value": 2.6}, {"measurement": "level of expressed mRNA in the presence of chemical substance / level in the absence of chemical substance", "setting": "yeast gene YPL005W", "value": 1.0}, {"measurement": "The level of expressed mRNA in the presence of chemical substance/The level of expressed mRNA in the absence of chemical substance", "setting": "yeast gene YPL087W", "value": 5.1}, {"measurement": "level of expressed mRNA in the presence of chemical substance / level in the absence of chemical substance", "setting": "yeast gene YPL150W", "value": 0.9}, {"measurement": "level of expressed mRNA in the presence of chemical substance / level in the absence of chemical substance", "setting": "yeast gene YPL152W", "value": 1.1}, {"measurement": "level of expressed mRNA in the presence of chemical substance / level in the absence of chemical substance", "setting": "yeast gene YPL168W", "value": 1.5}, {"measurement": "level of expressed mRNA in the presence of chemical substance / level in the absence of chemical substance", "setting": "yeast gene YPL180W", "value": 2.0}, {"measurement": "level of expressed mRNA in the presence of chemical substance / level in the absence of chemical substance", "setting": "yeast gene YPL188W", "value": 1.2}, {"measurement": "The level of expressed mRNA in the presence of chemical substance/The level of expressed mRNA in the absence of chemical substance", "setting": "yeast gene YPL196W", "value": 1.6}, {"measurement": "The level of expressed mRNA in the presence of chemical substance/The level of expressed mRNA in the absence of chemical substance", "setting": "yeast gene YPL206C", "value": 2.9}, {"measurement": "level of expressed mRNA in the presence of chemical substance / level in the absence of chemical substance", "setting": "yeast gene YPL221W", "value": 3.0}, {"measurement": "The level of expressed mRNA in the presence of chemical substance/The level of expressed mRNA in the absence of chemical substance", "setting": "yeast gene YPL222W", "value": 3.5}, {"measurement": "level of expressed mRNA in the presence of chemical substance / level in the absence of chemical substance", "setting": "yeast gene YPL225W", "value": 1.7}, {"measurement": "The level of expressed mRNA in the presence of chemical substance/The level of expressed mRNA in the absence of chemical substance", "setting": "yeast gene YPR023C", "value": 1.4}, {"measurement": "level of expressed mRNA in the presence of chemical substance / level in the absence of chemical substance", "setting": "yeast gene YPR049C", "value": 2.5}, {"measurement": "level of expressed mRNA in the presence of chemical substance / level in the absence of chemical substance", "setting": "yeast gene YPR146C", "value": 1.6}, {"measurement": "level of expressed mRNA in the presence of chemical substance / level in the absence of chemical substance", "setting": "yeast gene YPR148C", "value": 1.2}, {"measurement": "The level of expressed mRNA in the presence of chemical substance/The level of expressed mRNA in the absence of chemical substance", "setting": "yeast gene YPR151C", "value": 2.0}, {"measurement": "level of expressed mRNA in the presence of chemical substance / level in the absence of chemical substance", "setting": "yeast gene YPR172W", "value": 1.6}]}
